# Experimental data published in US10618898B2, “Hydroxyl purine compounds and use thereof” (GUANGDONG RAYNOVENT BIOTECH CO., LTD., priority 2015, dated 2020).
# Molecular target: T1, Recombinant full-length human PDE2A protein (Homo sapiens, UniProt O00408)
# T1 construct: Recombinant full-length human PDE2A protein; GST (N); host or cells: insect Sf9 cells (baculovirus)
# Experiment: In vitro PDE2 phosphodiesterase inhibitory activity (fluorescence polarization, Transcreener AMP2/GMP2)
# Format: biochemical
# Details: not given
# Protocol: Experiment Objective: Determining the concentration of AMP/GMP produced in the reaction system by way of detecting the AlexaFluor 633 fluorescent dye substituted on AMP/GMP antibody by fluorescence polarization assay, and thereby to calculate the IC50 value of PDE2 phosphodiesterase inhibition by the test compound. Experimental Materials: Detecting buffer solution: 10 mM Tris-HCl, pH 7.5, 5 mM MgCl2, 0.01% Brij 35, 1 mM DTT, and 1% DMSO. Enzyme: Recombinant full-length human PDE2A protein with an N-terminal GST-tag expressed in insect Sf9 cells by baculovirus Substrate: 1 μM cGMP Detection System: Transcreener® AMP^2/GMP^2 antibody, AMP2/GMP2 AlexaFluor 633 fluorescent dye Experimental Operation:
# The enzyme solution was prepared by using the freshly prepared buffer solution, and then was added into the reaction wells. The DMSO solution of the test compound was added via Echo550, a nanoliter-scale contactless acoustic liquid transferring system, and then pre-incubated at room temperature for 10 minutes. The substrate (1 μLM cGMP) was added to initiate the reaction at room temperature for one hour. The detection system (Transcreener® AMP^2/GMP^2 antibody, AMP2/GMP2 AlexaFluor 633 fluorescent dye) was then added, and the reaction was conducted at room temperature for 90 minutes. Fluorescence polarization was then detected by using Ex/Em 620/688.
# The intensity of fluorescence polarization was converted to nM concentration by the AMP/GMP standard curve, and then calculate the relative enzyme activity inhibition relative to the DMSO blank. The IC50 values and curves were calculated by using the Prism software package (GraphPad Software, San Diego Calif., USA)
# T1 sequence (O00408 whole entry): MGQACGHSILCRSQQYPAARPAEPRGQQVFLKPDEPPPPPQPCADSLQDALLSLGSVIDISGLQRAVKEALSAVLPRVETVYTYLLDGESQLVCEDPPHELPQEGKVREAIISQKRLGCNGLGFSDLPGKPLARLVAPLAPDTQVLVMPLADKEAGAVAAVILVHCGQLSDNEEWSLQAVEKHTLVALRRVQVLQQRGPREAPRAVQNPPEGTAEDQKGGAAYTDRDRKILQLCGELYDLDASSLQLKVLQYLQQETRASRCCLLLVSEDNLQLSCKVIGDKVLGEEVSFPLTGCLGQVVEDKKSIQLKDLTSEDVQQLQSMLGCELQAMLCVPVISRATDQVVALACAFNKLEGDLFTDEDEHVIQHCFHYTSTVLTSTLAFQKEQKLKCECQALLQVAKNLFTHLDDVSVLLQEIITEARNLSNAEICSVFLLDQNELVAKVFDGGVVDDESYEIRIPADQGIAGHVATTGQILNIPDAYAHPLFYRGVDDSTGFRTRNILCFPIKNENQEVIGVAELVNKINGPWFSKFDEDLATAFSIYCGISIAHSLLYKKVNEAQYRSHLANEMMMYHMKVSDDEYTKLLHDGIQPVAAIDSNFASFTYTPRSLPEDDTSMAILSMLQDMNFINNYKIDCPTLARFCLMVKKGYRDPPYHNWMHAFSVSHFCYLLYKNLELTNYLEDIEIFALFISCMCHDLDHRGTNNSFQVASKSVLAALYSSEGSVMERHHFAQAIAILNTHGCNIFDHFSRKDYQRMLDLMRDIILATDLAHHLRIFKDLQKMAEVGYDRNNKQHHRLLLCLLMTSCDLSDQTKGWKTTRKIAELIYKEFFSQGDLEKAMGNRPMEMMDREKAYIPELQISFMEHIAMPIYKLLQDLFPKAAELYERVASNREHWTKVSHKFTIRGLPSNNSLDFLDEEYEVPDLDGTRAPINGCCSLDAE
row,Compound,IC50 [µM]
1,"Cn1cnc2c1c(=O)n(CC1(C)COC1)c(=O)n2C [Example 3, 3,7-Dimethyl-1-((3-methyloxetan-3-yl)methyl)-1H-purin-2,6(3H, 7H)-dione]",10 to 50

# Same assay, conditions: human PDE2A, substrate 1 μM cGMP, fluorescence polarization; read-out: PDE2 phosphodiesterase inhibitory activity
row,Compound,IC50 [µM]
1,"Cn1cnc2c1c(=O)n(CC1(C)CCOCC1)c(=O)n2C [Example 11 Isomer 1, 3,7-Dimethyl-1-((4-methyltetrahydro-2H-pyran-4-yl)methyl)-1H-purin-2,6-(3H,7H)-dione]",10 to 50
2,"CCC1(CCn2c(=O)c3c(ncn3C)n(C)c2=O)CCOC1 (single isomer, unassigned) [Example 12 Isomer 2, 1-(2-(3-Ethyltetrahydro-furan-3-yl)ethyl)-3,7-dimethyl-1H-purin-2,6-(3H,7H)-dione]",10 to 50
3,"CCC1(Cn2c(=O)c3c(ncn3C)n(C)c2=O)CCOCC1 [Example 12 Isomer 1, 1-((4-Ethyltetrahydro-2H-pyran-4-yl)methyl)-3,7-dimethyl-1H-purin-2,6-(3H,7H)-dione]",10 to 50
4,"CCC1COCCC1CCn1c(=O)c2c(ncn2C)n(C)c1=O (centres unmarked) [Example 15, 1-(2-(3-Ethyltetrahydro-2H-pyran-4-yl)ethyl)-3,7-dimethyl-1H-purin-2,6-(3H,7H)-dione]",10 to 50
5,CCC1CC(CCn2c(=O)c3c(ncn3C)n(C)c2=O)CCO1 (centres unmarked) [Example 16],10 to 50
6,"C[C@H]1CC(CCn2c(=O)c3c(ncn3C)n(C)c2=O)C[C@H](C)O1 (stereo partly drawn) [Example 14, 1-[2-((2S,6S)-2,6-dimethyltetrahydro-2H-pyran-4-yl)-ethyl]-3,7-dimethyl-1H-2,6(3H,7H)-dione]",10 to 50
7,"CCC1OCC1CCn1c(=O)c2c(ncn2C)n(C)c1=O (centres unmarked) [Example 5, 1-(2-(2-Ethyloxetan-3-yl)ethyl)-3,7-dimethyl-1H-purin-2,6(3H,7H)-dione]",10 to 50
8,"CCC1(Cn2c(=O)c3c(ncn3C)n(C)c2=O)COC1 [Example 4, 1-((3-Ethyloxetan-3-yl)methyl)3,7-dimethyl-1H-purin-2,6(3H,7H)-dione]",10 to 50

# Next, values leading:
row,IC50 [µM],Compound
1,10 to 50,"Cn1c(=O)n(CC2(C)COC2)c(=O)c2c1cnn2CC1CC1 [Example 33, 1-(Cyclopropylmethyl)-4-methyl-6-((3-methyloxetan-3-yl)methyl)-pyrazolo[4,3-d]pyrimidin-5,7-dione]"
2,10 to 50,"C[C@@H]1CC(CCn2c(=O)c3c(ncn3CC(F)(F)F)n(C)c2=O)C[C@@H](C)O1 (stereo partly drawn) [Example 20, 1-(2-((2R,6R)-2,6-dimethyltetrahydro-2H-pyran-4-yl)ethyl)-3-methyl-7-(2,2,2-trifluoroethyl)-1H-purin-2,6 (3H,7H)-dione]"
3,10 to 50,C[C@@H]1CC(CCn2c(=O)c3c(ncn3CC3CC3)n(C)c2=O)C[C@@H](C)O1 (some centres unmarked) [Example 23]
4,10 to 50,"COC1CCC(Cn2c(=O)c3c(ncn3C)n(C)c2=O)CC1 (centres unmarked) [Example 18, 1((-4-Methoxycyclohexyl)methyl)-3,7-dimethyl-1H-purin-2,6-(3H,7H)-dione]"
5,10 to 50,"CC(C)n1cnc2c1c(=O)n(CCC1C[C@@H](C)O[C@H](C)C1)c(=O)n2C (stereo partly drawn) [Example 21, 1-(2-((2R,6R)-2,6-dimethyltetrahydro-2H-pyran-4-yl)ethyl)yl-7-isopropyl-3-methyl-1H-purin-2,6(3H,7H)-dione]"
6,10 to 50,"CC(C)Cn1cnc2c1c(=O)n(CCC1C[C@@H](C)O[C@H](C)C1)c(=O)n2C (stereo partly drawn) [Example 26, 1-(2-((2R,6R)-2,6-dimethyltetrahydro-2H-pyran-4-yl)ethyl)-7-isobutyl-3-methyl-1H-purin-2,6(3H, 7H)-dione]"

# System: TNF-α
# Experiment: In vitro induction of TNF-α in rat blood by LPS (ELISA)
# Format: cell-based
# Details: test compound final concentration 100 μM, 5 hours, read-out: Rate of TNFα inhibition
# Protocol: Experiment Objective: Determining the impact of the compounds on induction of TNF-α in rat blood by LPS in vitro, and evaluating the effect of the compounds on inhibiting induction of TNF-α in rat blood by LPS.
# Sprague Dawley rats (male, 210-260 g, 8-10 weeks old, Shanghai SLAC)
# Rat TNF-alpha Quantikine ELISA Kit (R&D, # SRTA00)
# The test compound solutions were prepared at a concentration of 1 mM. 40 μl of each of the solutions was added into a 48-well cell culture plate (at the final concentration of 100 μM). After the rat was anesthetized with isoflurane, the blood was collected from the heart (heparin for anticoagulation). The blood was added into the 48-well plate containing the test compound, in the amount of 320 μL per well. The 48-well plate was placed into a cell incubator, and then taken out after 30 minutes of incubation. Then, 40 μL of LPS solution (100 μg/ml) was added and mixed. The 48-well plate was placed into the incubator for further incubation. After 5 hours, the 48-well plate was taken out and the blood sample was transferred to a 1.5 mL centrifuge tube, followed by centrifugation in a centrifuge (4,500 rpm, 4° C., 5 minutes). The supernatant was separated and the plasma was obtained. […] In the next day, the TNF-α level of the plasma samples was determined by using the R&D ELISA kit in accordance with the instructions.
row,Compound,inhibition at 100 µM [%]
1,"Cn1cnc2c1c(=O)n(CC1(C)COC1)c(=O)n2C [Example 3, 3,7-Dimethyl-1-((3-methyloxetan-3-yl)methyl)-1H-purin-2,6(3H, 7H)-dione]",60 to 80
2,"Cn1cnc2c1c(=O)n(CCN1CCOCC1)c(=O)n2C [Example 17, 3,7-Dimethyl-1-(2-morpholinoethyl)-purin-2,6-dione]",< 60
